From US9725457B2, “6-amido derivatives of 4, 5-a epoxymorphinans for the treatment of pain” (Sloan-Kettering Institute for Cancer Research, priority 2010, dated 2017)
Like-named read-outs stand apart in the source and are kept apart here.

Legend:
[1] = target: T1, MOR (mu opioid receptor), MOR1-CHO (Mus musculus, UniProt P42866); experiment: Competition binding in MOR-CHO, 125I-SMGP1 radioligand
T1 construct: expressed in transfected cells; host or cells: CHO
Description: (§1) Receptor-Binding Assays: Competition-binding assays in MOR-CHO (mu), DOR-CHO (delta) and KOR-CHO (kappa) were performed at 25° C. in 50 mM potassium phosphate buffer, pH 7.4, containing 5 mM magnesium sulfate (only in the case of CHO-MOR). Specific binding was defined as the difference between total binding and nonspecific binding, determined in the presence of 8 μM levallorphan. 125I-SMGP1 (IBNtxA) was used as the universal radioligand to determine the relative affinity of drugs in MOR1-CHO, KOR1-CHO and DOR1-CHO. Protein concentrations were generally 20-40 μg/mL, incubation times were 90 minutes for all assays. (Majumdar et al., Bioorg Med Chem Lett. 2011, 21(13), 4001-4004). Kappa3 opioid receptor competition binding assays were carried out in whole brain membrane homogenates, performed at 25° C. in 50 mM potassium phosphate buffer, pH 7.4, containing 5 mM magnesium sulfate for 90 minutes in presence of 100 nM CTAP, 100 nM U50488h and 100 nM DPDPE. ^125I-SMGP1 was used as the radioligand in the assays, typically 500 micrograms of protein and 0.15 nM of the radioligand was used in a 0.5 mL assay. Specific binding was defined as the difference between total binding and nonspecific binding, determined in the presence of 8 μM levallorphan. Protein concentration was determined as described by Lowry et al. [J Biol Chem 1951, 193, 265-275; (1951)] using bovine serum albumin as the standard. Kd, Bmax, and Ki values were calculated by nonlinear regression analysis (GraphPadPrism). […] The “kappa3 opioid receptor” as referred to herein is the receptor first characterized by Clark et al. [J. Pharmacol. Exp. Ther. 251, 461-468 (1989)].

[2] = target: T2, DOR (delta opioid receptor), DOR1-CHO (Mus musculus, UniProt P32300); experiment: Competition binding in DOR-CHO, 125I-SMGP1 radioligand
T2 construct: expressed in transfected cells; host or cells: CHO
Description: Receptor-Binding Assays: Competition-binding assays in MOR-CHO (mu), DOR-CHO (delta) and KOR-CHO (kappa) were performed at 25° C. in 50 mM potassium phosphate buffer, pH 7.4, containing 5 mM magnesium sulfate (only in the case of CHO-MOR). Specific binding was defined as the difference between total binding and nonspecific binding, determined in the presence of 8 μM levallorphan. […] Protein concentrations were generally 20-40 μg/mL, incubation times were 90 minutes for all assays. […] Specific binding was defined as the difference between total binding and nonspecific binding, determined in the presence of 8 μM levallorphan. […] Kd, Bmax, and Ki values were calculated by nonlinear regression analysis (GraphPadPrism).

[3] = target: T3, KOR (kappa opioid receptor), KOR1-CHO (Mus musculus, UniProt P33534); experiment: Competition binding in KOR-CHO, 125I-SMGP1 radioligand
T3 construct: expressed in transfected cells; host or cells: CHO
Description: as §1

mice = experiment: Radiant heat tail flick analgesia assay; type: in vivo; conditions: Mus musculus; male CD-i mice, radiant heat tail-flick
Description: Tail Flick Analgesia Assays: Male CD-i mice (25-35 g; Charles River Breeding Laboratories, Wilmington, Mass.) were maintained on a 12-hr light/dark cycle with Purina rodent chow and water available ad libitum. Mice were housed in groups of five until testing. Analgesia was determined using the radiant heat tail-flick technique [D'Amour and Smith, J. Pharmacol. Exp. Ther. 72: 74-79 (1941)]. For the tail-flick assay, the latency to withdraw the tail from a focused light stimulus was measured electronically using a photocell. […] Post-treatment tail-flick latencies were determined as indicated for each experiment, and a maximal latency of 10 sec for tail-flick was used to minimize tissue damage. All experiments were replicated at least twice with each group in each experiment containing at least 10 mice and the combined results of all replications presented.

kappa3 opioid receptor = kappa3 opioid receptor (Mus musculus, UniProt P42866); experiment: Kappa3 opioid receptor competition binding in whole brain membrane homogenates
Description: as §1

[4] = MOR-CHO, 125I-SMGP1, 25° C., 90 minutes, read-out: Ki (nM) MOR
[5] = DOR-CHO, 125I-SMGP1, 25° C., 90 minutes, read-out: Ki (nM) DOR
[6] = KOR-CHO, 125I-SMGP1, 25° C., 90 minutes, read-out: Ki (nM) KOR

Question: What does the source list for `C=CCN1CCC23c4c5ccc(O)c4OC2C(NC(=O)c2ccc4ccccc4c2)CCC3(O)C1C5` (centres unmarked) [SMGP 41]?
Answer: Ki [1]: 0.74 nM; Ki [2]: 5.51 nM; Ki [3]: 1.29 nM; ED50 (mice): 1.47 mg/kg

Question: For `C=CCN1CC[C@]23c4c5ccc(O)c4O[C@H]2[C@H](NC(=O)c2cccc(I)c2)CC[C@@]3(O)[C@H]1C5` [SMGP 3], which Ki [1, 4] is on record?
Answer: 0.22 nM

Question: And the Ki [2, 5]?
Answer: 2.55 nM

Question: And the Ki [3, 6]?
Answer: 0.08 nM

Question: And the ED50 (mice)?
Answer: 0.57 mg/kg

Question: Which Ki [1, 4] does the source give for `C=CCN1CC[C@]23c4c5ccc(O)c4O[C@H]2[C@@H](NC(=O)c2cccc(I)c2)CC[C@@]3(O)[C@H]1C5` [SMGP 4] here?
Answer: 5.07 nM

Question: And the Ki [2, 5]?
Answer: 7.64 nM

Question: What about the Ki [3, 6] of the same compound?
Answer: 12.2 nM

Question: And the ED50 (mice)?
Answer: 5 mg/kg

Question: Which Ki [1, 4] does the source give for `C=CCN1CC[C@]23c4c5ccc(O)c4O[C@H]2[C@H](NC(=O)c2cccc(C(F)(F)F)c2)CC[C@@]3(O)[C@H]1C5` [SMGP 23] here?
Answer: 0.85 nM

Question: What about the Ki [2, 5] of the same compound?
Answer: 2.96 nM

Question: What about the Ki [3, 6] of the same compound?
Answer: 0.22 nM

Question: What about the ED50 (mice) of the same compound?
Answer: 0.26 mg/kg

Question: With `C=CCN1CC[C@]23c4c5ccc(O)c4O[C@H]2[C@H](NC(=O)c2cccc(O)c2)CC[C@@]3(O)[C@H]1C5` [SMGP 27] as the compound, how does the Ki [1, 4] read?
Answer: 0.23 nM

Question: What about the Ki [2, 5] of the same compound?
Answer: 11.2 nM

Question: And the Ki [3, 6]?
Answer: 2.75 nM

Question: And the ED50 (mice)?
Answer: 10.3 mg/kg

Question: `C=CCN1CC[C@]23c4c5ccc(O)c4O[C@H]2C(NC(=O)c2ccc4ccccc4n2)CC[C@@]3(O)[C@H]1C5` (some centres unmarked) [SMGP 47] was tested. Which Ki [1] did it give?
Answer: 0.2 nM

Question: What about the Ki [2] of the same compound?
Answer: 150 nM

Question: And the Ki [3]?
Answer: 0.5 nM

Question: And the ED50 (mice)?
Answer: 0.04 mg/kg

Question: With `C=CCN1CCC23c4c5ccc(O)c4OC2C(NC(=O)c2ccc(I)c(I)c2)CCC3(O)C1C5` (centres unmarked) [SMGP 34] as the compound, how does the Ki [1] read?
Answer: 0.5 nM

Question: What about the Ki [2] of the same compound?
Answer: 0.12 nM

Question: What about the Ki [3] of the same compound?
Answer: 0.05 nM

Question: What about the ED50 (mice) of the same compound?
Answer: 0.05 mg/kg

Question: Which Ki [1, 4] does the source give for `C=CCN1CC[C@]23c4c5ccc(O)c4O[C@H]2[C@H](NC(=O)c2ccccc2)CC[C@@]3(O)[C@H]1C5` [SMGP 21] here?
Answer: 4.03 nM

Question: And the Ki [2, 5]?
Answer: 60.8 nM

Question: What about the Ki [3, 6] of the same compound?
Answer: 14.3 nM

Question: And the ED50 (mice)?
Answer: 5 mg/kg

Question: Which results are given for `C=CCN1CCC23c4c5ccc(O)c4OC2C(NC(=O)c2ccc(-c4ccccc4)cc2)CCC3(O)C1C5` (centres unmarked) [SMGP 40]?
Answer: Ki [1]: 0.95 nM; Ki [3]: 25.8 nM; ED50 (mice): 12.5 mg/kg

Question: Which results are given for `C=CCN1CCC23c4c5ccc(O)c4OC2C(NC(=O)c2cccc(Cl)c2)CCC3(O)C1C5` (centres unmarked) [SMGP 19]?
Answer: Ki [1]: 1.15 nM; Ki [2]: 4.87 nM; Ki [3]: 0.52 nM; ED50 (mice): 2.3 mg/kg

Question: For `C=CCN1CC[C@]23c4c5ccc(O)c4O[C@H]2C(NC(=O)c2ccc(SC)cc2)CC[C@@]3(O)[C@H]1C5` (some centres unmarked) [SMGP 59], which Ki [1] is on record?
Answer: 0.8 nM

Question: What about the Ki [2] of the same compound?
Answer: 15.9 nM

Question: What about the Ki [3] of the same compound?
Answer: 3.67 nM

Question: What about the ED50 (mice) of the same compound?
Answer: 5.43 mg/kg

Question: `O=C(NC1CCC2(O)C3Cc4ccc(O)c5c4C2(CCN3CC2CCC2)C1O5)c1cccc(I)c1` (centres unmarked) [SMGP 6] was tested. Which Ki [1] did it give?
Answer: 0.88 nM

Question: And the Ki [2]?
Answer: 2.38 nM

Question: What about the Ki [3] of the same compound?
Answer: 0.67 nM

Question: Which Ki [1] does the source give for `C=CCN1CCC23c4c5ccc(O)c4OC2C(NC(=O)CCCCC)CCC3(O)C1C5` (centres unmarked) [SMGP 55] here?
Answer: 9.5 nM

Question: What about the Ki [3] of the same compound?
Answer: 9.15 nM

Question: What about the ED50 (mice) of the same compound?
Answer: > 10 mg/kg

Question: Which “affinity for the kappa3 site in words” value (kappa3 opioid receptor) does the source give for `CN1CC[C@]23CCCC[C@H]2[C@H]1Cc1ccc(O)cc13` [levorphanol] here?
Answer: high affinity

Question: Which ED50 (mice) does the source give for `CN1CCC23c4c5ccc(O)c4OC2C(NC(=O)c2cccc(I)c2)CCC3(O)C1C5` (centres unmarked) [SMGP 2] here?
Answer: > 10 mg/kg

Question: For `C=CCN1CCC23c4c5ccc(OC)c4OC2C(NC(=O)c2cccc(I)c2)CCC3(O)C1C5` (centres unmarked) [SMGP 8], which Ki [1] is on record?
Answer: > 100 nM

Question: And the Ki [2]?
Answer: > 100 nM

Question: And the Ki [3]?
Answer: > 100 nM

Question: What about the ED50 (mice) of the same compound?
Answer: > 10 mg/kg

Question: `C=CCN1CCC23c4c5ccc(O)c4OC2C(NC(=O)CCCCCCCCCCC)CCC3(O)C1C5` (centres unmarked) [SMGP 56] was tested. Which ED50 (mice) did it give?
Answer: > 10 mg/kg
